# Measurements as given in patent US20240124442A1, “TRICYCLIC-AMIDO-BICYCLIC PRMT5 INHIBITORS” (AMGEN INC., priority 2021, published 2024).
# Legend:
# [1] = system: HCT116 MTAP null cells; test: HCT116 MTAP null cell line proliferation / cell viability (CellTiter-Glo, 6 days); format: cell-based; conditions: 144 h; HCT116 MTAP null cells, 6 days treatment, CellTiter-Glo cell viability; read-out: HCT-116 MTAP null IC50
# Summary of the method: (§1)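 Anti-proliferative IC50s were derived from CellTiter-Glo signal in HCT116 parent and MTAP-null cells after six days on compound. Serial dilutions reached top concentrations of 1, 10 or 50 μM, with DMSO-only wells as control.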
# [2] = system: HCT116 WT cells; test: HCT116 WT (parent) cell line proliferation / cell viability (CellTiter-Glo, 6 days); format: cell-based; conditions: Homo sapiens, HCT-116, 144 h, 6 days treatment
# Summary of the method: as §1
Compound,IC50 [1] [nM],IC50 [2] [µM]
"CN(C(=O)c1cc2c(cn1)nc(N)c1c2cnn1C)[C@@H]1COCc2nc(C(F)(F)F)ccc21 [Example 304, 4-amino-N,3-dimethyl-N-((5S)-2-(trifluoromethyl)-5,8-dihydro-6H-pyrano[3,4-b]pyridin-5-yl)-3H-pyrazolo[3,4-c][1,7]naph-thyridine-8-carboxamide]",198,9.23
"CN(C(=O)c1cc2c3c(c(N)nc2cn1)COC3)[C@H]1COCc2cc(Br)ccc21 (single isomer, unassigned) [Example 399]",1330,10
"CN(C(=O)c1ccc2nc(N)c3cnn(C)c3c2c1)[C@@H]1COc2cc(OC3CCC3)ccc21 [Example 676, 4-amino-N-((3S)-6-(cyclobutyloxy)-2,3-dihydro-1-benzofuran-3-yl)-N,1-dimethyl-1H-pyrazolo[4,3-c]quinoline-8-carboxamide]",40,2.59
"CN(C(=O)c1cc2c(cc1Cl)nc(N)c1cnn(C)c12)C1CCc2nc(C(F)(F)F)ccc21 (racemic) [Example 248, 4-amino-7-chloro-N,1-dimethyl-N-((5R)-2-(trifluoromethyl)-6,7-dihydro-5H-cyclopenta[b]-pyridin-5-yl)-1H-pyrazolo[4,3-c]quinoline-8-carboxamide and 4-amino-7-chloro-N,1-dimethyl-N-((5S)-2-(trifluoromethyl)-6,7-dihydro-5H-cyclopenta[b]-pyridin-5-yl)-1H-pyrazolo[4,3-c]quinoline-8-carboxamide]",18,0.635
"CN(C(=O)c1cc2c(cn1)nc(N)c1cnn(C)c12)[C@@H]1COc2cc(C(F)(F)F)ncc21 (single isomer, unassigned) [Example 568]",97,5.8
"CN(C(=O)c1cc2c(cc1Cl)nc(N)c1cnn(C)c12)[C@H]1COc2nc(C(F)(F)F)ccc21 (single isomer, unassigned) [Example 388]",136,7.54
"CCN(C(=O)c1cc2c(cc1F)nc(N)c1cnn(C)c12)[C@H]1COc2cc(C(F)(F)F)ccc21 [Example 244, 4-amino-N-ethyl-7-fluoro-1-methyl-N-((3R)-6-(trifluoro-methyl)-2,3-dihydro-1-benzo-furan-3-yl)-1H-pyrazolo[4,3-c]quinoline-8-carboxamide]",182,7.44
"CN(C(=O)c1cc2c3c(c(N)nc2cn1)COC3)[C@@H]1COc2cc(S(C)(=O)=O)ccc21 (single isomer, unassigned) [Example 339]",237,8.78
"CN(C(=O)c1cc2c3c(c(N)nc2cc1F)COC3)[C@@H]1COc2cc(-c3ccc(S(F)(F)(F)(F)F)cc3)ccc21 [Example 667, 4-amino-7-fluoro-N-methyl-N-((3S)-6-(4-(pentafluoro-lambda~6 ~- sulfanyl)phenyl)-2,3-dihydro-1-benzofuran-3-yl)-1,3-dihydrofuro[3,4-c]quinoline-8-carboxamide]",383,7.07
"CN(C(=O)c1cc2c(cc1F)nc(N)c1cnn(C)c12)[C@@H]1COc2cc(C#N)ccc21 (single isomer, unassigned) [Example 373]",4,0.235
"CCN(C(=O)c1ccc2nc(N)c3c(c2c1)COC3)[C@H]1COCc2cc(Br)ccc21 (single isomer, unassigned) [Example 581]",790,17.9
"CN(C(=O)c1ccc2nc(N)c3c(c2c1)COC3)[C@H]1COc2cc(C(F)(F)F)cc(F)c21 (single isomer, unassigned) [Example 326]",1780,20.6
"CN(C(=O)c1cc2c3c(c(N)nc2cc1F)COC3)[C@H]1COc2cc(C(F)(F)F)cc(F)c21 (single isomer, unassigned) [Example 356]",1040,11.3
"CN(C(=O)c1cc2c3c(c(N)nc2cc1Cl)COC3)[C@H]1COc2cc(C(F)(F)F)ccc21 (single isomer, unassigned) [Example 561]",657,10.8
"CN(C(=O)c1cc2c(cc1Cl)nc(N)c1cnn(C)c12)[C@@H]1COCc2cc(C(F)(F)F)ccc21 [Example 294, 4-amino-7-chloro-N,1-dimethyl-N-((4S)-7-(trifluoromethyl)-3,4-dihydro-1H-2-benzopyran-4-yl)-1H-pyrazolo[4,3-c]quinoline-8-carboxamide]",3,0.012
"CN(C(=O)c1cc2c3c(c(N)nc2cc1Cl)COC3)[C@@H]1CCc2nc(C(F)(F)F)ccc21 (single isomer, unassigned) [Example 558]",17,0.941
"CN(C(=O)c1ccc2nc(N)c3cnn(C)c3c2c1)[C@@H]1COc2cc(-c3ccnc(F)c3F)ccc21 [Example 643, 4-amino-N-((3S)-6-(2,3-difluoro-4-pyridinyl)-2,3-dihydro-1-benzofuran-3-yl)-N,1-dimethyl-1H-pyrazolo[4,3-c]quinoline-8-carboxamide]",5,0.228
"CN(C(=O)c1cc2c3c(c(N)nc2cn1)COC3)[C@@H]1COc2cc(-c3cnn(C(F)(F)F)c3)ccc21 [Example 457, 4-amino-N-methyl-N-((3S)-6-(1-(trifluoromethyl)-1H-pyrazol-4-yl)-2,3-dihydro-1-benzofuran-3-yl)-1,3-dihydrofuro[3,4-c][1,7]naphthyridine-8-carboxamide]",63,3.77
"CN(C(=O)c1ccc2nc(N)c3c(c2c1)COC3)C1COc2cc(C3=CCN(C(=O)OC(C)(C)C)CC3)ccc21 (racemic) [Example 614, 2-methyl-2-propanyl 4-((3R)-3-(((4-amino-1,3-dihydrofuro[3,4-c]quinolin-8-yl)carbonyl)(methyl)amino)-2,3-dihydro-1-benzofuran-6-yl)-3,6-dihydro-1(2H)-pyridinecarboxylate and 2-methyl-2-propanyl 4-((3S)-3-(((4-amino-1,3-dihydrofuro[3,4-c]quinolin-8-yl)carbonyl)(methyl)amino)-2,3-dihydro-1-benzofuran-6-yl)-3,6-dihydro-1(2H)-pyridinecarboxylate]",127,1.36
"CN(C(=O)c1ccc2nc(N)c3cnn(C)c3c2c1)[C@@H]1COc2cc(C3CC3)ccc21 [Example 615, 4-amino-N-((3S)-6-cyclopropyl-2,3-dihydro-1-benzofuran-3-yl)-N,1-dimethyl-1H-pyrazolo[4,3-c]quinoline-8-carboxamide]",14,1.31
"C[C@H]1OCc2c1c(N)nc1cc(F)c(C(=O)N(C)[C@@H]3COCc4cc(S(C)(=O)=O)ccc43)cc21 (single isomer, unassigned) [Example 592]",21,1.02
"CN(C(=O)c1cc2c3c(c(N)nc2cn1)COC3)[C@H]1COc2cc(S(C)(=O)=O)ccc21 (single isomer, unassigned) [Example 340]",7320,50
"CN(C(=O)c1ccc2nc(N)c3c(c2c1)COC3)[C@@H]1COc2cc(S(C)(=N)=O)ccc21 (stereo partly drawn) [Example 446, 4-amino-N-methyl-N-((3S)-6-(S-methylsulfonimidoyl)-2,3-dihydro-1-benzofuran-3-yl)-1,3-dihydrofuro[3,4-c]quinoline-8-carboxamide]",864,36
